{
  "source": "paper PMC7044277",
  "about": "(Nature Communications, 2020)",
  "format_in_all_cases": "cell-based",
  "key": {"320 non-olfactory GPCRs [1]": {"molecular_target": "T1, 320 non-olfactory GPCRs (Homo sapiens, UniProt Q5NUL3)", "T1 construct": "expressed in transfected cells; host or cells: HTLA cells", "T1 sequence (Q5NUL3 whole entry)": "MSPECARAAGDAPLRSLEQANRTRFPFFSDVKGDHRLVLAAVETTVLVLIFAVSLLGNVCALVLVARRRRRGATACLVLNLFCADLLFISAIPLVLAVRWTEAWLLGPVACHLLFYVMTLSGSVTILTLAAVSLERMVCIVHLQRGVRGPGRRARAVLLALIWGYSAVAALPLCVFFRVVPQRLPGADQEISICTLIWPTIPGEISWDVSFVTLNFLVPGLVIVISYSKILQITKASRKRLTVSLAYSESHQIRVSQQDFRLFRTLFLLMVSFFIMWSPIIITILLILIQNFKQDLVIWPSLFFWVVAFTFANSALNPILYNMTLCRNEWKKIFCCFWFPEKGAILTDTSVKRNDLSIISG"}, "320 non-olfactory GPCRs [2]": {"molecular_target": "T2, 320 non-olfactory GPCRs (Homo sapiens, UniProt P46092)", "T2 construct": "expressed in transfected cells; host or cells: HTLA cells", "T2 sequence (P46092 whole entry)": "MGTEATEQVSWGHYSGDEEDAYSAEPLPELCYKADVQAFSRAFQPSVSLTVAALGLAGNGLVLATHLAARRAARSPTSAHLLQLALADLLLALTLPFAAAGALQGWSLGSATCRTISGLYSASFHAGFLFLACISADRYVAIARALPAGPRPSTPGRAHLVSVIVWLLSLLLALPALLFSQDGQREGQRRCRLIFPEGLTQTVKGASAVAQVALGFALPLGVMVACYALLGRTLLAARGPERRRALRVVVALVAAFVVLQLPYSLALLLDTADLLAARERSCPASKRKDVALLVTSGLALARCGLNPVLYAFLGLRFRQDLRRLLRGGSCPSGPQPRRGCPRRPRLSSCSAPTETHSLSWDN"}, "320 non-olfactory GPCRs [3]": {"molecular_target": "320 non-olfactory GPCRs (Homo sapiens, UniProt P30542)", "sequence (P30542 whole entry)": "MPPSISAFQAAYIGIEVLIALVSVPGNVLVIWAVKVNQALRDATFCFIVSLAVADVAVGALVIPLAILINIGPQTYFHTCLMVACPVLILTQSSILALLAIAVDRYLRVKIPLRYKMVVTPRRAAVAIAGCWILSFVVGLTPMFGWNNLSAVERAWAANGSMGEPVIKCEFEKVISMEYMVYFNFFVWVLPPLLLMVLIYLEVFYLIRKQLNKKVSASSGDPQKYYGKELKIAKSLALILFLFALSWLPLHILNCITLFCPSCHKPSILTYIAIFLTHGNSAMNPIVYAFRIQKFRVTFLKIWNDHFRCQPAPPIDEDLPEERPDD"}, "320 non-olfactory GPCRs [4]": {"molecular_target": "T3, 320 non-olfactory GPCRs (Homo sapiens, UniProt Q9GZQ4)", "T3 construct": "expressed in transfected cells; host or cells: HTLA cells", "T3 sequence (Q9GZQ4 whole entry)": "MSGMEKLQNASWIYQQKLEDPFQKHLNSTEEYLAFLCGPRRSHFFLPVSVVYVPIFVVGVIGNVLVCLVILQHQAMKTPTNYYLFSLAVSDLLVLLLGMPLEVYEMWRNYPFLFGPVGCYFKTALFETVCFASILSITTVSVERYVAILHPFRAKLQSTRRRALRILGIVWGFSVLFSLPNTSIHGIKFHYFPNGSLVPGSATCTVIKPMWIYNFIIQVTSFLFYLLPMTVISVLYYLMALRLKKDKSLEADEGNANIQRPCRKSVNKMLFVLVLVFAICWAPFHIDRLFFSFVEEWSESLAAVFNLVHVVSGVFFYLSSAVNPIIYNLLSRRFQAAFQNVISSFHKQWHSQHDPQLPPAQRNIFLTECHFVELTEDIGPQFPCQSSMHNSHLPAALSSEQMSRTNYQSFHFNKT", "details": "receptor NMUR2; replicate values, Fig_4g"}},
  "note": "Several values for one entry are separate records, joined by “and”; a condition that tells them apart may be missing. Equal entries are not always repeated.",
  "data": [
    {"compound": "CCOc1cccc2cc(C(C)NCC3(O)CCCCC3)oc12", "note": "(stereo not shown) [O4LE6];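 for Fold of Basal: compound tested at 1 µM final concentration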;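 for GPCRome agonism screen response: fold over basal response of each receptor without drug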", "values": [
      {"measurement": "Fold of Basal", "setting": "320 non-olfactory GPCRs [1]", "result": "1.4501 and 0.8868 and 0.9227 and 1.231"},
      {"measurement": "Fold of Basal", "setting": "320 non-olfactory GPCRs [2]", "result": "0.7929 and 1.009 and 0.769 and 1.275"},
      {"measurement": "Fold of Basal", "setting": "320 non-olfactory GPCRs [3]", "result": "0.6117 and 1.0436 and 0.9318 and 0.9525"},
      {"measurement": "GPCRome agonism screen response", "setting": "320 non-olfactory GPCRs [4]", "result": "1.0233 and 1.105 and 1.159 and 0.9738"}
    ]}
  ]
}
